The values below come from patent EP0835868A1, “2-Aryl-3-aminoaryloxynaphthyl compounds, intermediates, compositions and methods” (ELI LILLY AND COMPANY, priority 1996, dated 1998).

Assay [1] has as its system female Sprague Dawley rats. Kind of assay: Estrogen deprivation model in ovariectomized rats: wet uterine weight. It counts as in vivo. The following applies: daily for 4 days, OVX rats, % increase versus the ovariectomized controls. Here is the method:
(§1) In the examples illustrating the methods, an estrogen deprivation model was used in which effects of different treatments upon circulating lipids were determined.
(§2) Seventy-five day old female Sprague Dawley rats (weight range of 200 to 225g) are obtained from Charles River Laboratories (Portage, MI). The animals are either bilaterally ovariectomized (OVX) or exposed to a Sham surgical procedure at Charles River Laboratories, and then shipped after one week. Upon arrival, they are housed in metal hanging cages in groups of 3 or 4 per cage and have ad libitum access to food (calcium content approximately 0.5%) and water for one week. Room temperature is maintained at 22.2° ± 1.7° C with a minimum relative humidity of 40%. The photoperiod in the room is 12 hours light and 12 hours dark. Dosing Regimen Tissue Collection. After a one week acclimation period (therefore, two weeks post-OVX) daily dosing with test compound is initiated. 17a-ethynyl estradiol or the test compound are given orally, unless otherwise stated, as a suspension in 1% carboxymethylcellulose or dissolved in 20% cyclodextrin. Animals are dosed daily for 4 days. Following the dosing regimen, animals are weighed and anesthetized with a ketamine: Xylazine (2:1, V:V) mixture and a blood sample is collected by cardiac puncture. The animals are then sacrificed by asphyxiation with CO2, the uterus is removed through a midline incision, and a wet uterine weight is determined.

Another assay relates to Eosinophil peroxidase. Kind of assay: Uterine Eosinophil Peroxidase (EPO) Assay on uteri of dosed ovariectomized rats. The following applies: daily for 4 days, OVX rats. The format is in vivo, Sprague Dawley rats.
Text: as §2
(§3) Cholesterol Analysis. Blood samples are allowed to clot at ambient temperature for 2 hours, and serum is obtained following centrifugation for 10 minutes at 3000 rpm. Serum cholesterol is determined using a Boehringer Mannheim Diagnostics high performance cholesterol assay. Briefly, the cholesterol is oxidized to cholest-4-en-3-one […]. The hydrogen peroxide is then reacted with phenol and 4-aminophenazone in the presence of peroxidase to produce a p-quinone imine dye, which is read spectrophotemetrically at 500 nm. Cholesterol concentration is then calculated against a standard curve. The entire assay is automated using a Biomek Automated Workstation. Uterine Eosinophil Peroxidase (EPO) Assay. Uteri are kept at 4° C until time of enzymatic analysis. The uteri are then homogenized in 50 volumes of 50 mM Tris buffer (pH - 8.0) containing 0.005% Triton X-100. Upon addition of 0.01% hydrogen peroxide and 10 mM O-phenylenediamine (final concentrations) in Tris buffer, increase in absorbance is monitored for one minute at 450 nm. The presence of eosinophils in the uterus is an indication of estrogenic activity of a compound. The maximal velocity of a 15 second interval is determined over the initial, linear portion of the reaction curve. Source of Compound: 17a-ethynyl estradiol was obtained from Sigma Chemical Co., St. Louis, MO.

Assay [2] relates to female Sprague Dawley rats. As to the kind of experiment: Estrogen deprivation model in ovariectomized rats: serum cholesterol analysis. The settings on record: daily for 4 days, OVX rats, decrease versus ovariectomized controls. The format is in vivo. Here is the method:
as §1, §2, §3

Structures can show the parent of a compound that is named as a salt. Marks after values point to notes of the source that are not given here.

For the compound `C#C[C@]1(O)CC[C@H]2[C@@H]3CCc4cc(O)ccc4[C@H]3CC[C@@]21C` [EE2, 17-a-Ethynyl-estradiol, reference compound], the “Uterine Weight (% Inc.)” value in assay [1] (0.1 mg/kg PO) is on record as 96.0* % Inc. Also, the “Uterine Eosinophil (Vmax)” value with Eosinophil peroxidase (0.1 mg/kg PO) is reported as 54.6*. For the same compound, the “Serum Cholesterol (% Dec.)” value in assay [2] (0.1 mg/kg PO) is 75.9* % Dec.
Regarding `O=C(CN1CCCCC1)Nc1ccc(Oc2c(-c3ccc(O)cc3)ccc3cc(O)ccc23)cc1` [Example 2, 1-[4-[2-(1-Piperidinyl)acetylamido]phenoxy-2-(4-hydroxyphenyl)-6-hydroxynaphthalene Hydrochloride], the entries for the “Uterine Weight (% Inc.)” value in assay [1] (0.1 mg/kg PO), in assay [1] (1.0 mg/kg PO) and in assay [1] (10.0 mg/kg PO) were 13.6 % Inc, 59.0* % Inc and 107.0* % Inc, respectively. Moreover, the “Uterine Eosinophil (Vmax)” value with Eosinophil peroxidase (0.1 mg/kg PO) is 1.8; in the assay with Eosinophil peroxidase (1.0 mg/kg PO) it was 11.7; in the assay on Eosinophil peroxidase (10.0 mg/kg PO) it was 71.1*. For the same compound, the “Serum Cholesterol (% Dec.)” value in assay [2] (0.1 mg/kg PO) is listed as 27 % Dec; in assay [2] (1.0 mg/kg PO), 66.4* % Dec; in assay [2] (10.0 mg/kg PO), 57.6* % Dec.
Consider `Oc1ccc(-c2ccc3cc(O)ccc3c2Oc2ccc(NCCN3CCCCC3)cc2)cc1` [Example 4, 1-[4-[2-(1-Piperidinyl)ethylamino]phenoxy]-2-(4-hydroxyphenyl)-6-hydroxynaphthalene], for which the “Uterine Weight (% Inc.)” value in assay [1] (0.01 mg/kg PO) is on record as 7.1 % Inc; in assay [1] (0.1 mg/kg PO), 39.8* % Inc; in assay [1] (1.0 mg/kg PO), 25.4 % Inc. For the same compound, the results for the “Uterine Eosinophil (Vmax)” value in the assay on Eosinophil peroxidase (0.01 mg/kg PO), in the assay with Eosinophil peroxidase (0.1 mg/kg PO) and in the assay with Eosinophil peroxidase (1.0 mg/kg PO) were 2.7, 4.5 and 5.4, respectively. In addition, the figures for the “Serum Cholesterol (% Dec.)” value in assay [2] (0.01 mg/kg PO), in assay [2] (0.1 mg/kg PO) and in assay [2] (1.0 mg/kg PO) were 20.8* % Dec, 59.9* % Dec and 75.3* % Dec, respectively.
